“And” between values parts separate entries of the source, which are not always exact repeats. Equal entries are not always repeated.

The values that follow come from US20240115550A1, “TREATMENT OF MENTAL DISORDERS” (GH Research Ireland Limited, priority 2022, published 2024).

The subject of data set [1] is human hepatocytes (Hμrel HumanPool co-culture). The data set can be described thus: Metabolic stability in Hμrel human hepatocyte co-culture. Format: in vitro ADME. On the procedure:
The incubations were performed using 1 and 10 μM initial concentrations and sampling at 0, 1, 2, 4, 8, 24, 48, and 72 hours (h) time points. The samples were analysed using UPLC/QE-orbitrap-MS.

Data set [2] can be described thus: LC-MS/MS of 5-MeO-DMT and metabolites in breastmilk, serum and urine of a lactating PPD patient.
Data set [3] has as its system patients with postpartum depression (PPD). Description: Clinical trial of inhaled 5-MeO-DMT in postpartum depression. As to conditions: for MADRS response (>=50% improvement) and remission (total <=10): 6 mg then 12 mg. The data set is classed as in vivo, human.
Protocol: The single-arm, open-label clinical trial will involve 15 adult female patients with clinically diagnosed postpartum depression (PPD).
The second dose (12 mg) will only be administered if: • a. A peak experience (total score of ≥75) has not been achieved following the 6 mg dose, and • b. The 6 mg dose was safe and well-tolerated according to the investigator, • c. Any psychoactive effects (PsE) of the prior dose have subsided, and • d. Pre-dose vital parameters and forced expiratory volume in one second (FEV1) are in normal range, or if outside of the normal range, are not clinically significant according to the investigator. • 3. Similarly, a third dose (18 mg) will only be administered if: • a. A peak experience (total score of ≥75) has not been achieved following the 12 mg dose, and • b. The 12 mg dose was safe and well-tolerated according to the investigator, and • c. Any PsE of the prior dose have subsided, and • d. Pre-dose vital parameters and forced expiratory volume in one second (FEV1) are in normal range, or if outside of the normal range, are not clinically significant according to the investigator.
The patients will be assessed for a peak psychedelic experience (based on a patient-scored visual analogue scale, the PE scale), sedation, and other endpoints after dosing. Follow-up visits are planned for Day 1, and Day 7 after the dosing day.
The following criteria must be met by all patients considered for clinical trial participation: • 1. Is female and in the age range between 18 and 45 years (inclusive) at screening. • 2. Has a body mass index (BMI) in the range of 18.5 and 35 kg/m^2 (inclusive) at screening. • 3. Meets the trial criteria for PPD as assessed by a trial psychiatrist or registered psychologist: • a. Diagnosis of Major Depressive Disorder without psychotic features, confirmed by the Mini-International Neuropsychiatric Interview (MINI), with peri-partum onset that began no earlier than gestation and no later than the first 4 weeks postpartum. • b. Has a Montgomery-Åsberg Depression Rating Scale (MADRS) total score of equal to or greater than 28 at screening and pre-dose on Day 0. • 6. […] Patients must have a negative pregnancy test at screening and on the pre-test day (Day −1). • 5. Is willing to delay start of other antidepressant or anxiety medication until after the end of the trial at Day 7 and agrees to keep any psychotherapy unchanged during the trial.
A potential patient who meets any of the following key exclusion criteria will be excluded from participation in this trial: • 1. Has, based on history, psychiatric assessment, and evaluation of the MINI, a current or prior diagnosis of bipolar disorder, a manic or hypomanic episode, a psychotic disorder, Major Depressive Disorder (MDD) or other mood disorder with psychotic features, obsessive compulsive disorder, post-traumatic stress disorder (PTSD), autism spectrum disorder, borderline personality disorder, schizophrenia, delusional disorder, paranoid personality disorder, schizoaffective disorder, clinically significant intellectual disability, or any other psychiatric comorbidity that renders the patient unsuitable for the trial according to the investigator's judgment. • 2. Has one or more first or second degree relatives with a current or previously diagnosed bipolar disorder, psychotic disorder or other mood disorder (including MDD) with psychotic features. • 3. Is in the judgement of a trial psychiatrist or registered psychologist, at significant risk for suicide based on history, psychiatric assessment, and evaluation of suicidal ideation and suicidal behaviour based on the Columbia-Suicide Severity Rating Scale (C-SSRS). • 4. Has taken anti-depressive medication within 14 days or 5 half-lives (whichever is longer) prior to dosing (exception: within the last 5 weeks in the case of fluoxetine). • 5.
Data set [4] can be described thus: Pharmacokinetics after single inhaled dose. Format: in vivo, human.
Data set [5] can be described thus: Infant exposure estimate (DID, RID) from breast milk concentrations.
Data set [6] has as its system Escherichia coli (WP2 uvrA pKM101). The data set can be described thus: Bacterial mutation test, Escherichia coli. Format: cell-based. As to conditions: up to 5000 μg/plate, absence and presence of S-9. On the procedure: (§1) These conditions included treatments at concentrations up to 5000 μg/plate (the maximum recommended concentration according to current regulatory guidelines), in the absence and in the presence of a rat liver metabolic activation system (S-9).

Data set [7] concerns Salmonella typhimurium (TA98, TA100, TA1535 and TA1537). Description: Bacterial mutation test, Salmonella typhimurium. As to conditions: up to 5000 μg/plate, absence and presence of S-9. Format: cell-based. On the procedure: as §1
The subject of the next data set is human plasma protein. Description: Plasma binding of 5-MIAA. The data set is classed as in vitro ADME. On the procedure:
Binding to human plasma protein was determined. Reported are the unbound fraction (fu) for three replicates as well as the mean unbound fraction, the standard deviation and the mean % recovery (Table 8).

[8] abbreviates: female, human, breast milk, inhaled.
[9] abbreviates: 2.5 hours after last 5-MeO-DMT dose.

With `COc1ccc2[nH]cc(CCO)c2c1` [5-methoxytryptophol, 5-methoxyindole-3-ethanol], the “relative LC/MS peak area for 5-methoxytryptophol” value is 100% in data set [1] (0 h, incubation by row: r7 1 μM Hepatocytes, r8 1 μM Stromal cells, r9 10 μM Hepatocytes, r10 10 μM Stromal cells); 79% and 87% in data set [1] (1 h, as E141); 57% and 81% in data set [1] (2 h, as E141). For the same compound, the metabolic turnover result in data set [1] (in 24 h with hepatocytes) is “complete disappearance”.

For `COc1ccc2[nH]cc(CCN(C)C)c2c1` [5-MeO-DMT], the “detection in breast milk” value in data set [2] (after 24 hours) is on record as “did not detect”. Besides, in data set [2] (setting [8]), the concentration at 2.5 h turned out to be 561 µg/mL. Moreover, in data set [2] (setting [8]), the concentration at 8.5 h came out at 42100 ng/mL. In addition, the “MADRS response (>=50% improvement) and remission (total <=10)” value in data set [3] (first PPD patient) and in data set [3] (second PPD patient) was “fulfilled standard criteria” each time. For the same compound, the “BIMF management domain, percentage improvement” value in data set [3] (first PPD patient, Day 7) was found to be 18%. Besides, the “BIMF self-care domain, percentage improvement” value in data set [3] (first PPD patient, Day 7) is reported as 44%. Further, the adverse events entry in data set [3] (first PPD patient: cramping left abdominal pain and headache, Day 0) was “mild, short-lasting and resolved spontaneously”; in data set [3] (second PPD patient: vomiting Day 0, headache Day 5), “mild, short-lasting and resolved spontaneously”. In data set [3] (first PPD patient, Day 1, as E149), the MADRS item score was determined as 0. Moreover, the BPRS item score came out at 1 in data set [3] (first PPD patient, Day 1, rows as E155); 1 in data set [3] (first PPD patient, Day 7, rows as E155); 1 in data set [3] (first PPD patient, Discharge, item by row: r24 Somatic Concern, r25 Anxiety, r26 Emotional withdrawal, r28 Conceptual disorganization, r30 Guilt feelings, r31 Tension, r32 Mannerisms and Posturing, r34 Grandiosity, r35 Depressive Mood, r36 Hostility, r37 Suspiciousness, r38 Hallucinatory behaviour, r40 Motor retardation, r41 Uncooperativeness, r42 Unusual Thought Content, r44 Blunted affect, r45 E). For the same compound, the detectability in plasma entry in data set [4] (3 hours after inhalation) is reported as “no longer detectable”. Moreover, in data set [4] (repeated within 1 to 4 hours), the “accumulation upon repeated administration” value was “No accumulation”. For the same compound, the “Daily Infant Dosage (DID) per kg” value in data set [5] (5 kg infant) is given as 0.0001385 mg/kg/day. The mutation induction entry in data set [6] and in data set [7] was “did not induce mutation” throughout.

On to `CN(C)CCc1c[nH]c2ccc(O)cc12` [bufotenine], for which the “detection in serum and breastmilk” value in data set [2] (any time point after 5-MeO-DMT) was “not detected”. In addition, in data set [2] (times by row as E172), the “Bufotenine in Breastmilk” value is “BLQ (Below limit of quantification. The lower limit of quantification is 25 pg/ml for both 5-MeO-DMT and 5-MIAA in both serum and breastmilk; it is 25 pg/ml in urine for 5-MeO-DMT and 250 pg/ml for 5-MIAA in urine.)”; the “Bufotenine in Serum” value is “BLQ (Below limit of quantification. The lower limit of quantification is 25 pg/ml for both 5-MeO-DMT and 5-MIAA in both serum and breastmilk; it is 25 pg/ml in urine for 5-MeO-DMT and 250 pg/ml for 5-MIAA in urine.)”. The “detection in human serum” value in data set [4] (after 5-MeO-DMT, in no case detected 15 minutes after administration) is given as “barely detected”.

For the compound 5-methoxyindole acetic acid [5-MIAA], the remaining abundance in data set [1] (after 72h with hepatocytes, 1 and 10 μM) is listed as 75-82%. The “in vitro intrinsic clearance” value in data set [1] (human hepatocytes, 1 μM) was found to be 0.15 μl/min/million cells. In addition, in data set [2] (5-MIAA at 2.5 hours), the “urine concentration, times higher than in serum” value is “approx. 127 times”. For the same compound, in data set [2] (1 hour after last 5-MeO-DMT dose), the “5-MIAA concentration in breast milk” value was determined as 13945.2. Further, in data set [2] (setting [9]), the “5-MIAA concentration in breast milk” value was determined as 13240.9 and the 5-MIAA urine concentration was 12. Further, the “5-MIAA concentration in breast milk” value in data set [2] (8.5 hours after last 5-MeO-DMT dose) is listed as 359.4. This compound also yielded a plasma binding in the data set on human plasma protein (from mean fraction unbound) of around 50%. In addition, in the data set on human plasma protein (human plasma), the “Mean % Recovery” value stood at 81.4%; the “unbound fraction (fu), Replicate 1” value stood at 0.499; the “unbound fraction (fu), Replicate 2” value is given as 0.462; the “unbound fraction (fu), Replicate 3” value is 0.544. The same compound yielded a Mean fu in the data set with human plasma protein (human plasma, three replicates) of 0.502. Also, in data set [5] (5 kg infant), the DID per kg is on record as 0.001377 mg/kg/day. Besides, in data set [5] (three feeds of 250 ml), the “total exposure of the infant (DID)” value is on record as 0.006886 mg 5-MIAA/day.
